Test results published in ChEMBL document CHEMBL1201862, “PubChem BioAssay data set” (2004).
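Grown in 96-well plates, cells were treated for 48 hours with each compound at five concentrations. Insufficient inhibition: endpoint recorded as highest concentration tested. GI50: concentration for 50% inhibition of growth.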 Activity calls are given as the source filed them. Rule as the data show it: active = GI50 up to about 1.1 µM and inactive = higher.

Key:
Assay in all cases: NCI-60 cell line screen, 48 h
RXF 393 = tested on: RXF 393
KM12 = tested on: KM12
SNB-78 = tested on: SNB-78
UACC-257 = tested on: UACC-257
TK-10 = tested on: TK-10
COLO 205 = tested on: COLO 205
RXF 631 = tested on: RXF 631
M19-MEL = tested on: M19-MEL
HOP-62 = tested on: HOP-62
SK-OV-3 = tested on: SK-OV-3
NCI-H522 = tested on: NCI-H522
NCI-H226 = tested on: NCI-H226
786-0 = tested on: 786-0
LOX IMVI = tested on: LOX IMVI
SK-MEL-5 = tested on: SK-MEL-5
SN12C = tested on: SN12C
SK-MEL-28 = tested on: SK-MEL-28
A549 = tested on: A549
HT-29 = tested on: HT-29
SW-620 = tested on: SW-620
NCI-H23 = tested on: NCI-H23
DMS-273 = tested on: DMS-273
ACHN = tested on: ACHN
XF498 = tested on: XF498
UACC-62 = tested on: UACC-62
EKVX = tested on: EKVX
K562 = tested on: K562
HCT-15 = tested on: HCT-15
M14 = tested on: M14
MOLT-4 = tested on: MOLT-4
HCC 2998 = tested on: HCC 2998
SNB-75 = tested on: SNB-75
OVCAR-5 = tested on: OVCAR-5
DLD-1 = tested on: DLD-1
HL-60 = tested on: HL-60
OVCAR-4 = tested on: OVCAR-4
IGROV-1 = tested on: IGROV-1
CCRF-CEM = tested on: CCRF-CEM
SK-MEL-2 = tested on: SK-MEL-2
CAKI-1 = tested on: CAKI-1
U-251 = tested on: U-251
LXFL 529 = tested on: LXFL 529
A498 = tested on: A498
HOP-18 = tested on: HOP-18
DMS-114 = tested on: DMS-114
SF-295 = tested on: SF-295
UO-31 = tested on: UO-31
OVCAR-8 = tested on: OVCAR-8
SF-268 = tested on: SF-268
OVCAR-3 = tested on: OVCAR-3
Malme-3M = tested on: Malme-3M
SF-539 = tested on: SF-539
SNB-19 = tested on: SNB-19
RPMI-8226 = tested on: RPMI-8226
SR = tested on: SR
NCI-H460 = tested on: NCI-H460
HOP-92 = tested on: HOP-92
HCT-116 = tested on: HCT-116
KM-20L2 = tested on: KM-20L2

Measured: GI50

Cc1cc(N(CCC#N)CCC#N)ccc1/N=N/c1ccccc1[N+](=O)[O-]
> 100 µM: HCT-15
inactive: RXF 393 > 100 µM | KM12 > 100 µM | SNB-78 > 100 µM | UACC-257 > 100 µM | TK-10 > 100 µM | COLO 205 > 100 µM | RXF 631 > 100 µM | M19-MEL > 100 µM | HOP-62 43.6 µM | SK-OV-3 > 100 µM | NCI-H522 > 100 µM | NCI-H226 > 100 µM | 786-0 > 100 µM | LOX IMVI > 100 µM | SK-MEL-5 > 100 µM | SN12C > 100 µM | SK-MEL-28 > 100 µM | A549 > 100 µM | HT-29 > 100 µM | SW-620 > 100 µM | NCI-H23 > 100 µM | DMS-273 > 100 µM | ACHN > 100 µM | XF498 26.8 µM | UACC-62 > 100 µM | EKVX > 100 µM | K562 > 100 µM | M14 > 100 µM | MOLT-4 > 100 µM | HCC 2998 > 100 µM | SNB-75 34 µM | OVCAR-5 > 100 µM | DLD-1 > 100 µM | HL-60 > 100 µM | OVCAR-4 > 100 µM | IGROV-1 > 100 µM | CCRF-CEM > 100 µM | SK-MEL-2 > 100 µM | CAKI-1 > 100 µM | U-251 > 100 µM | LXFL 529 > 100 µM | A498 > 100 µM | HOP-18 > 100 µM | DMS-114 > 100 µM | SF-295 > 100 µM | UO-31 > 100 µM | OVCAR-8 > 100 µM | SF-268 > 100 µM | OVCAR-3 > 100 µM | Malme-3M > 100 µM | SF-539 > 100 µM

Cn1nc(-c2ccccc2)c2c(/C=C/c3ccccc3)onc2c1=O
inactive: RXF 393 46.1 µM | KM12 > 100 µM | SNB-78 38.7 µM | UACC-257 > 100 µM | SNB-19 67.3 µM | TK-10 > 100 µM | COLO 205 > 100 µM | RXF 631 73.3 µM | M19-MEL > 100 µM | HOP-62 41.8 µM | SK-OV-3 43.8 µM | NCI-H522 37.3 µM | NCI-H226 > 100 µM | 786-0 33 µM | LOX IMVI > 100 µM | SK-MEL-5 > 100 µM | SN12C > 100 µM | SK-MEL-28 > 100 µM | A549 > 100 µM | HT-29 > 100 µM | NCI-H23 > 100 µM | ACHN > 100 µM | XF498 26.8 µM | UACC-62 23.8 µM | EKVX 67.1 µM | K562 > 100 µM | RPMI-8226 > 100 µM | M14 > 100 µM | MOLT-4 > 100 µM | HCC 2998 83.6 µM | SR 95.7 µM | SNB-75 27 µM | OVCAR-5 > 100 µM | DLD-1 78.9 µM | HL-60 > 100 µM | IGROV-1 > 100 µM | CCRF-CEM > 100 µM | NCI-H460 > 100 µM | SK-MEL-2 > 100 µM | HOP-92 33 µM | CAKI-1 69 µM | U-251 64 µM | LXFL 529 > 100 µM | A498 > 100 µM | HOP-18 25.5 µM | DMS-114 98.4 µM | HCT-116 > 100 µM | SF-295 38.9 µM | UO-31 6.82 µM | OVCAR-8 33.7 µM | KM-20L2 > 100 µM | SF-268 43.9 µM | OVCAR-3 50.6 µM | Malme-3M 71.4 µM | SF-539 65.8 µM
> 100 µM: HCT-15

CC1CC2(CC[C@@H]1O)OCCO2 (stereo partly drawn)
> 100 µM: HCT-15
inactive: RXF 393 > 100 µM | KM12 > 100 µM | SNB-78 > 100 µM | UACC-257 > 100 µM | SNB-19 > 100 µM | TK-10 > 100 µM | COLO 205 > 100 µM | RXF 631 > 100 µM | M19-MEL > 100 µM | HOP-62 > 100 µM | SK-OV-3 > 100 µM | NCI-H522 > 100 µM | 786-0 > 100 µM | LOX IMVI > 100 µM | SK-MEL-5 > 100 µM | SN12C > 100 µM | A549 > 100 µM | HT-29 > 100 µM | SW-620 > 100 µM | NCI-H23 > 100 µM | DMS-273 > 100 µM | XF498 > 100 µM | UACC-62 > 100 µM | EKVX > 100 µM | K562 > 100 µM | RPMI-8226 > 100 µM | M14 > 100 µM | MOLT-4 > 100 µM | HCC 2998 > 100 µM | DLD-1 > 100 µM | HL-60 > 100 µM | OVCAR-4 > 100 µM | IGROV-1 > 100 µM | CCRF-CEM > 100 µM | NCI-H460 > 100 µM | SK-MEL-2 > 100 µM | HOP-92 > 100 µM | CAKI-1 > 100 µM | U-251 > 100 µM | LXFL 529 > 100 µM | A498 > 100 µM | HCT-116 > 100 µM | SF-295 > 100 µM | UO-31 > 100 µM | OVCAR-8 > 100 µM | OVCAR-3 > 100 µM | Malme-3M > 100 µM | SF-539 > 100 µM

N#CC1=C(c2ccccc2)C(O)(c2ccccc2)NC1=O (stereo not drawn)
> 100 µM: HCT-15
inactive: RXF 393 > 100 µM | KM12 > 100 µM | UACC-257 > 100 µM | TK-10 > 100 µM | COLO 205 > 100 µM | RXF 631 99.8 µM | M19-MEL > 100 µM | HOP-62 > 100 µM | SK-OV-3 32.7 µM | NCI-H226 51.5 µM | 786-0 > 100 µM | LOX IMVI > 100 µM | SK-MEL-5 68.1 µM | SN12C 48.3 µM | SK-MEL-28 > 100 µM | A549 > 100 µM | HT-29 41.1 µM | SW-620 > 100 µM | NCI-H23 42 µM | DMS-273 > 100 µM | ACHN 37.5 µM | XF498 > 100 µM | UACC-62 > 100 µM | EKVX > 100 µM | K562 > 100 µM | RPMI-8226 75 µM | M14 52.4 µM | MOLT-4 > 100 µM | HCC 2998 > 100 µM | SR 44.2 µM | SNB-75 > 100 µM | OVCAR-5 39.3 µM | DLD-1 71.3 µM | HL-60 > 100 µM | OVCAR-4 > 100 µM | IGROV-1 > 100 µM | CCRF-CEM 70.5 µM | NCI-H460 58.3 µM | SK-MEL-2 99.1 µM | HOP-92 19.5 µM | CAKI-1 > 100 µM | U-251 > 100 µM | LXFL 529 > 100 µM | A498 24.6 µM | HOP-18 31.7 µM | DMS-114 > 100 µM | HCT-116 > 100 µM | SF-295 37.4 µM | UO-31 82.8 µM | OVCAR-8 > 100 µM | KM-20L2 47.5 µM | SF-268 > 100 µM | OVCAR-3 > 100 µM | Malme-3M 25.2 µM | SF-539 27.7 µM
